SMILES strings stand for the structures.

The target in data set [1] is T1, Leucine-rich repeat serine/threonine-protein kinase 2 (Homo sapiens, UniProt Q5S007, G2019S). The data set can be described thus: Inhibition of recombinant human GST-tagged LRRK2 (970 to 2527 residues) G2019S mutant expressed in baculovirus using fluorescein-ERM as substrate preincubated for 30 mins followed by substrate addition measured after 1 hr by TR-FRET assay. (TR-FRET usually uses a lanthanide donor and a delayed reading to cut background.)
T1 sequence (Q5S007 whole entry G2019S, the tested form may be a part): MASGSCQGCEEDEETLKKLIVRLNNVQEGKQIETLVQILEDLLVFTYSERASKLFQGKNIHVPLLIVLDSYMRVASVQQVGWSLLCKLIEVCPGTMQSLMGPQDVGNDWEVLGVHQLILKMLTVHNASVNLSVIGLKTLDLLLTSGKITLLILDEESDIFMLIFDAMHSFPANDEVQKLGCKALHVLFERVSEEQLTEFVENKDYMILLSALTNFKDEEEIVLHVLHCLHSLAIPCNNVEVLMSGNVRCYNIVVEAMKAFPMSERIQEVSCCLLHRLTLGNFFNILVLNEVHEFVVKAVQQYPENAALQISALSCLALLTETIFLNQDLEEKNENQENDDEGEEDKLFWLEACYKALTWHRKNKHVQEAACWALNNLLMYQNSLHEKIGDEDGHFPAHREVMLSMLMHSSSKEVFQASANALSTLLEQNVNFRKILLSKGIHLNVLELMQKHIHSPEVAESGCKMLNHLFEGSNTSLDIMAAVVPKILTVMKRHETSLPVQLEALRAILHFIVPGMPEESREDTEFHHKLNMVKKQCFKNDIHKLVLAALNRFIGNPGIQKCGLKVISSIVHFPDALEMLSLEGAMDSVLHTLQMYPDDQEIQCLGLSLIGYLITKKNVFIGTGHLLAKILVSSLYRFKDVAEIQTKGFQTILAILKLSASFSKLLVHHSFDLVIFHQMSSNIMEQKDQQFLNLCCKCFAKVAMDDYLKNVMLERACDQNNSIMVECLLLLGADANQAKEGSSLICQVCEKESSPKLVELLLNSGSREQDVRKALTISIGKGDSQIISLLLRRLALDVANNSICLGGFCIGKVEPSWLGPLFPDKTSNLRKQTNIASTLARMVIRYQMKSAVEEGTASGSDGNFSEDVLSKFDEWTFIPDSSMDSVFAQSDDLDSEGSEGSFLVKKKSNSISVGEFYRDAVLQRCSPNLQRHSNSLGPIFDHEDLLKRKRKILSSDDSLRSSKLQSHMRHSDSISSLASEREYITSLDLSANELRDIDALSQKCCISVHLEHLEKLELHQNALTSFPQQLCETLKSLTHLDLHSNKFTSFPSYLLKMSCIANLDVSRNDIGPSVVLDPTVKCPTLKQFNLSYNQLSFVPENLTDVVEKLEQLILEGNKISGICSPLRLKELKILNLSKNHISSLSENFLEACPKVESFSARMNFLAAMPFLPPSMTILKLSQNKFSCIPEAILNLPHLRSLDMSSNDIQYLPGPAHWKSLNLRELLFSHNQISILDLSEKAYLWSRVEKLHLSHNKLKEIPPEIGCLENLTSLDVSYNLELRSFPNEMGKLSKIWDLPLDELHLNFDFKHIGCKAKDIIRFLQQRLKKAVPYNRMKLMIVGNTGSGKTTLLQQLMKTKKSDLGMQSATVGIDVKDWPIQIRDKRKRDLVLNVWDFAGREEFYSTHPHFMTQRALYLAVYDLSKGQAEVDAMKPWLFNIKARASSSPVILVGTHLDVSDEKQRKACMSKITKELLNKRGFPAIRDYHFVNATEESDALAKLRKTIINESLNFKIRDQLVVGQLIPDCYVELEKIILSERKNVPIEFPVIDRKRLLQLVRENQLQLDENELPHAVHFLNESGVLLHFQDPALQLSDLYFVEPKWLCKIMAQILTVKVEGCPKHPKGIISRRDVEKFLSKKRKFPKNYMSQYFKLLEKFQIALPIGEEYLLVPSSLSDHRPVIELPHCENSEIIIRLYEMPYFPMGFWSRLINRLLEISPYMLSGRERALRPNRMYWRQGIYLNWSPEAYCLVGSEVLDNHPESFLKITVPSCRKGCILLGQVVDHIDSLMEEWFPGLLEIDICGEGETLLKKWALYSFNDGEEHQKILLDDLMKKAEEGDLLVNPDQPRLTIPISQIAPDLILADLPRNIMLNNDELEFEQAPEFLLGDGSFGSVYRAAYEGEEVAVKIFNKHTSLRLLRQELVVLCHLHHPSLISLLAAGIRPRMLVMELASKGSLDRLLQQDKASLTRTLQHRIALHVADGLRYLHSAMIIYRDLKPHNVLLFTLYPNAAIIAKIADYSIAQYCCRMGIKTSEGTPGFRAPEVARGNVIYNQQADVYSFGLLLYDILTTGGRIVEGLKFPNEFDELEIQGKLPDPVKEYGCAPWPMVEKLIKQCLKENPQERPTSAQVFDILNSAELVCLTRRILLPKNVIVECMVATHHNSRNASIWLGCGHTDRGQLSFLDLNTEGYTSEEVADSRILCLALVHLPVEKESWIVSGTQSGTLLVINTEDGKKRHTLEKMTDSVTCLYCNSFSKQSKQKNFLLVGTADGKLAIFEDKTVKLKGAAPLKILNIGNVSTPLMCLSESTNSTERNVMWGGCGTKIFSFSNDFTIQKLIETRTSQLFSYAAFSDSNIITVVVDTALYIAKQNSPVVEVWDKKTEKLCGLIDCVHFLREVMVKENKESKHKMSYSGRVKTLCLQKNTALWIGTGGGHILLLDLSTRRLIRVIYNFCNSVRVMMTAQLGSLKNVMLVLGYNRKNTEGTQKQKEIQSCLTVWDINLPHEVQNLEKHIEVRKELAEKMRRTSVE

The subject of data set [2] is MDR1 (human). Briefly: Apparent permeability in pig LLC-PK1 cells expressing human MDR1. Format: ADME, cell-based, Sus scrofa.
Data set [3] can be described thus: Efflux ratio of permeability […] in pig LLC-PK1 cells expressing human MDR1. The data set is classed as ADME, cell-based, Sus scrofa.
Data set [4] is described as follows: Efflux ratio of permeability […] in pig LLC-PK1 cells expressing rat MDR1. The data set is classed as ADME, cell-based, Sus scrofa.
Data set [5] has as its target T1, Leucine-rich repeat serine/threonine-protein kinase 2. Briefly: Inhibition of recombinant human GST-tagged LRRK2 (970 to 2527 residues) G2019S mutant expressed in baculovirus using fluorescein-ERM as substrate preincubated for 30 mins followed by substrate addition measured after 1 hr in presence of 5 mM ATP by TR-FRET assay.
Data set [6] can be described thus: Intrinsic clearance in rat hepatocytes assessed per million cells at 1 uM after 180 mins by LC-MS/MS analysis. The data set is classed as ADME, cell-based, Hepatocyte. The settings on record: read-out: CLH.
Data set [7] is described as follows: Intrinsic clearance in human hepatocytes assessed per million cells at 1 uM after 180 mins by LC-MS/MS analysis. The data set is classed as ADME, cell-based, Hepatocyte. The settings on record: read-out: CLH.
Data set [8] has as its target T1, Leucine-rich repeat serine/threonine-protein kinase 2. Briefly: Inhibition LRRK2 G2019S mutant Ser935 phosphorylation in human SH-SY5Y cells after 90 mins by Western blot analysis. The data set is classed as cell-based. (In general: In western blotting, separated proteins are transferred to a membrane and probed.)
Data set [9] addresses Leucine-rich repeat serine/threonine-protein kinase 2 (Homo sapiens, UniProt Q5S007). Briefly: Inhibition of wild type human recombinant LRRK2 expressed in baculovirus using fluorescein-ERM as substrate preincubated for 30 mins followed by substrate addition measured after 1 hr by TR-FRET assay.

Sequence of Leucine-rich repeat serine/threonine-protein kinase 2 (Homo sapiens, UniProt Q5S007) (Q5S007 whole entry): as the sequence (Q5S007 whole entry G2019S, the tested form may be a part) above, with S2019G counted along it

For orientation: IC50 means the concentration needed to halve the response being measured. As a reminder, the Papp is a coefficient for how fast a substance crosses the barrier. Take `N#Cc1ccc2[nH]nc(-c3ccnc(N4CCOCC4)c3)c2c1`: the half-inhibitory concentration (IC50) in data set [1] was 0.064 µM. In addition, in data set [2], the Papp was 340 nm/s. Moreover, the Ratio is given as 0.7 in data set [3] and 1.3 in [4].

Regarding `c1ccc2c(-c3ccncc3)n[nH]c2c1`, the IC50 in data set [1] was 0.904 µM.

Consider `c1ccc2c(-c3ccnc(N4CCOCC4)c3)n[nH]c2c1`, for which, in data set [1], the IC50 turned out to be 0.012 µM. In data set [2], the apparent permeability coefficient (Papp) is 190 nm/s. In addition, the Ratio is listed as 0.3 in [3] and 0.2 in [4].

Regarding `C[C@@H]1CN(c2cc(-c3n[nH]c4ccc(OC5(C)CC5)cc34)ncn2)CCO1`, the figures for the IC50 in [1], in data set [5] and in [8] were 0.002 µM, 0.013 µM and 0.005 µM, respectively. Also, the Papp in data set [2] amounted to 280 nm/s. In addition, the Ratio in data set [3] was found to be 0.3; in data set [4] it was 0.4. Besides, the hepatocyte CLint at 1 µM in data set [6] was determined as 15 µL/min/1e6 cells; in [7], 7 µL/min/1e6 cells.

With `c1ccc2c(-c3cc(N4CCOCC4)ncn3)n[nH]c2c1`, the values for the hepatocyte CLint at 1 µM in data set [6] and in data set [7] were 30 µL/min/1e6 cells and 9 µL/min/1e6 cells, respectively.

For `CC(C)Oc1ccc2[nH]nc(-c3ccnc(N4CCN(S(C)(=O)=O)CC4)c3)c2c1`, in data set [2], the Papp was determined as 290 nm/s. Besides, the Ratio in data set [3] worked out at 0.4; in [4], 0.6. Besides, the IC50 was determined as 0.014 µM in data set [5] and 0.083 µM in data set [8]. Besides, the hepatocyte CLint at 1 µM in data set [6] was found to be 32 µL/min/1e6 cells; in [7], 7 µL/min/1e6 cells.

Take `Cn1cc(-c2ccc3[nH]nc(-c4ccnc(N5CCOCC5)c4)c3c2)cn1`: the Papp in data set [2] is 380 nm/s. Moreover, the results for the Ratio in data set [3] and in data set [4] were 1.5 and 6.3, respectively. Besides, the results for the hepatocyte CLint at 1 µM in data set [6] and in [7] were 31 µL/min/1e6 cells and 7 µL/min/1e6 cells, respectively.

On to `COCCNc1cc(-c2n[nH]c3ccccc23)ccn1`, for which the IC50 in [1] was 0.098 µM.

As to `c1cnnc(-c2ccc3[nH]nc(-c4ccnc(N5CCOCC5)c4)c3c2)c1`, the Papp in data set [2] was determined as 320 nm/s. The Ratio turned out to be 16 in [3] and 38 in [4]. Moreover, the hepatocyte CLint at 1 µM in data set [6] worked out at 6 µL/min/1e6 cells; in [7], 10 µL/min/1e6 cells.

Turning to `CC(C)Oc1ccc2[nH]nc(-c3ccnc(N4CCN(C)C(=O)C4)c3)c2c1`, the Papp in data set [2] amounted to 380 nm/s. For the same molecule, the Ratio in [3] is 3.2; in data set [4] it was 15. Moreover, the IC50 in data set [5] turned out to be 0.091 µM; in data set [8], 0.059 µM. In addition, the figures for the hepatocyte CLint at 1 µM in data set [6] and in data set [7] were 38 µL/min/1e6 cells and 16 µL/min/1e6 cells, respectively.

Take `CC(C)Oc1ccc2[nH]nc(-c3ccnc(N4CCC(n5cnnc5)CC4)c3)c2c1`: in data set [2], the Papp was 460 nm/s. For the same molecule, the Ratio in [3] came to 40; in [4], 41. Besides, the IC50 came to 0.069 µM in [5] and 0.194 µM in data set [8]. In addition, the hepatocyte CLint at 1 µM worked out at 19 µL/min/1e6 cells in data set [6] and 2 µL/min/1e6 cells in data set [7].

Take `Nc1cc(-c2n[nH]c3ccc(Nc4ccccc4)cc23)ccn1`: the IC50 in data set [9] is 0.728 µM.

Take `O=S(=O)(c1ccc2[nH]nc(-c3ccnc(N4CCOCC4)c3)c2c1)C1CC1`: in data set [2], the apparent permeability (Papp) was found to be 350 nm/s. For the same molecule, the Ratio came out at 20 in [3] and 44 in [4]. The hepatocyte CLint at 1 µM in data set [6] worked out at 15 µL/min/1e6 cells; in data set [7] it was 7.3 µL/min/1e6 cells.

As to `CC(C)Oc1ccc2[nH]nc(-c3ccnc(N4CCN(C)CC4)c3)c2c1`, the IC50 is 0.0008 µM in data set [1] and 0.052 µM in [8]. In addition, the apparent permeability coefficient (Papp) in [2] was determined as 270 nm/s. The Ratio in data set [3] is listed as 0.6; in [4], 1.7. Besides, the hepatocyte CLint at 1 µM was found to be 36 µL/min/1e6 cells in data set [6] and 7 µL/min/1e6 cells in data set [7].

For the molecule `c1cncc(-c2n[nH]c3ccccc23)c1`, the IC50 in data set [1] is 1.23 µM.

Turning to `c1cc(-c2n[nH]c3ccc(OC4CC4)cc23)cc(N2CCOCC2)n1`, the IC50 in data set [1] worked out at 0.041 µM. The Papp in data set [2] came out at 310 nm/s. Besides, the Ratio in [3] and in [4] was 0.3 each time. Also, the hepatocyte CLint at 1 µM came out at 32 µL/min/1e6 cells in data set [6] and 37 µL/min/1e6 cells in [7].

As to `CC1(Oc2ccc3[nH]nc(-c4cc(N5CCN(S(C)(=O)=O)CC5)ncn4)c3c2)CC1`, the values for the IC50 in data set [1] and in data set [8] were 0.0022 µM and 0.0076 µM, respectively. Besides, in data set [2], the Papp was found to be 300 nm/s. In addition, the figures for the Ratio in [3] and in data set [4] were 2.2 and 12, respectively. In addition, in [6], the hepatocyte CLint at 1 µM came to 10 µL/min/1e6 cells.

Consider `c1cc(-c2n[nH]c3ccc(C4CC4)cc23)cc(N2CCOCC2)n1`, for which the IC50 in [1] came to 0.013 µM. Besides, the Papp in data set [2] worked out at 250 nm/s. The results for the Ratio in data set [3] and in data set [4] were 0.2 and 0.1, respectively. Further, the figures for the hepatocyte CLint at 1 µM in data set [6] and in data set [7] were 52 µL/min/1e6 cells and 31 µL/min/1e6 cells, respectively.

With `c1ccc(-c2n[nH]c3ccccc23)nc1`, the IC50 in data set [1] was determined as 6.19 µM.

As for `CC(C)Oc1ccc2[nH]nc(-c3ccnc(N4C[C@@H](F)[C@H](F)C4)c3)c2c1`, the figures for the IC50 in data set [1], in data set [5] and in data set [8] were 0.0066 µM, 0.128 µM and 0.341 µM, respectively. In [2], the Papp is 310 nm/s. The Ratio came to 0.4 in data set [3] and 0.7 in data set [4]. For the same molecule, the hepatocyte CLint at 1 µM in data set [6] amounted to 39 µL/min/1e6 cells; in data set [7], 25 µL/min/1e6 cells.

For the molecule `CC1(Oc2ccc3[nH]nc(-c4cc(N5CCOCC5)ncn4)c3c2)CC1`, the Papp in data set [2] turned out to be 350 nm/s. Also, the results for the hepatocyte CLint at 1 µM in data set [6] and in [7] were 18 µL/min/1e6 cells and 8 µL/min/1e6 cells, respectively.

With `COc1ccc2[nH]nc(-c3ccnc(N4CCOCC4)c3)c2c1`, the IC50 in data set [1] was determined as 0.015 µM. Further, in data set [2], the Papp turned out to be 330 nm/s. Further, the Ratio in [3] is 0.2; in [4], 0.4. Moreover, the hepatocyte CLint at 1 µM is 28 µL/min/1e6 cells in [6] and 23 µL/min/1e6 cells in data set [7].

In the case of `c1ccc2c(-c3cncc(N4CCOCC4)c3)n[nH]c2c1`, the IC50 in data set [1] was 0.256 µM. Besides, the Papp in data set [2] came out at 380 nm/s. Besides, the Ratio is recorded as 0.4 in [3] and 0.5 in [4].

Turning to `CC(C)Oc1ccc2[nH]nc(-c3cc(N4CCOCC4)ncn3)c2c1`, the Papp in data set [2] came to 380 nm/s. Moreover, the Ratio in data set [3] came out at 0.6; in [4] it was 0.4. Also, the results for the hepatocyte CLint at 1 µM in data set [6] and in data set [7] were 13 µL/min/1e6 cells and 6 µL/min/1e6 cells, respectively. This molecule gave an IC50 in [8] of 0.041 µM.

On to `C[C@H]1CN(c2cc(-c3n[nH]c4ccc(OC5(C)CC5)cc34)ncn2)CCO1`, for which the Papp in data set [2] is 270 nm/s. For the same molecule, the Ratio in data set [3] and in [4] was 0.5 in each case. Also, the concentration for half-maximal inhibition (IC50) in data set [5] came to 0.076 µM; in data set [8], 0.0038 µM. Further, the hepatocyte CLint at 1 µM worked out at 26 µL/min/1e6 cells in [6] and 7 µL/min/1e6 cells in data set [7].

(Values after ChEMBL document CHEMBL4007454 (J Med Chem, 2017).)
